Experimental data reported in PubChem BioAssay (NCI).
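Cells were grown in 96-well plates and exposed to each compound for 48 hours at five concentrations; endpoints were interpolated linearly between bracketing concentrations, or set to the highest concentration if not reached. At the GI50, growth is halved. TGI: total growth inhibition.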

Tests used:
Test in all cases: NCI tumour cell line growth inhibition, 48 h
786-0 renal = system: 786-0 renal
CAKI-1 renal = system: CAKI-1 renal
COLO 205 colon = system: COLO 205 colon
HS 578T breast = system: HS 578T breast
NCI-H226 lung = system: NCI-H226 lung
SF-539 CNS = system: SF-539 CNS
SK-MEL-28 melanoma = system: SK-MEL-28 melanoma
BT-549 breast = system: BT-549 breast

Compound | TGI (786-0 renal) [µM] | TGI (CAKI-1 renal) [µM] | TGI (COLO 205 colon) [µM] | TGI (HS 578T breast) [µM] | TGI (NCI-H226 lung) [µM] | TGI (SF-539 CNS) [µM] | TGI (SK-MEL-28 melanoma) [µM] | TGI (BT-549 breast) [µM] | GI50 (BT-549 breast) [nM] | GI50 (CAKI-1 renal) [nM] | GI50 (COLO 205 colon) [nM] | GI50 (HS 578T breast) [nM] | GI50 (NCI-H226 lung) [µM] | GI50 (SF-539 CNS) [nM] | GI50 (SK-MEL-28 melanoma) [nM]
CSc1cc(Cl)c(C)cc1S(=O)(=O)NC(=O)NNc1ccccn1 | > 100 | > 100 | > 100 | > 100 | > 100 | > 100 | > 100 | – | – | – | – | – | – | – | –
Cc1ccc(NNc2cc(=O)[nH]c(=O)[nH]2)cc1Cl | 28 | 28.4 | 30.6 | > 100 | > 100 | 69.4 | 31.7 | > 100 | – | – | – | – | – | – | –
C=C(Br)C(Cl)(CBr)CCC(Br)C(C)(C)Cl (stereo unspecified) | > 10 | > 10 | > 10 | – | > 10 | > 10 | > 10 | > 10 | – | – | – | – | – | – | –
Cc1ccc(N2C(=O)CC(=O)N(NC(=O)C(C)Oc3ccccc3C)C2=S)cc1 (stereo unspecified) | > 100 | > 100 | > 100 | > 100 | > 100 | > 100 | > 100 | > 100 | – | – | – | – | – | – | –
CN(C)CCCNC(=O)CNC(=O)c1cc(NC(=O)c2cc(NC(=O)c3cc(NC(=O)CCNC(=O)c4cc(NC(=O)c5cc(NC(=O)c6nccn6C)cn5C)cn4C)cn3C)cn2C)cn1C | > 100 | > 100 | > 100 | > 100 | > 100 | > 100 | > 100 | – | – | – | – | – | – | – | –
CCC(/C=C/c1ccccc1)=N\NC(=S)N/N=C(/C=C/c1ccccc1)CC | > 100 | > 100 | > 100 | > 100 | > 100 | 91.6 | > 100 | > 100 | – | – | – | – | – | – | –
C/C(=N/NC(=S)N(Cc1ccccn1)Cc1ccccn1)c1cnccn1 | 7.97 | 8.08 | – | 55.7 | 0.157 | – | > 61.8 | 12.7 | – | – | – | – | – | – | –
O=C1NC(N/N=C/C(O)C(O)C(O)C(O)CO)=N/C1=C\c1cccs1 (stereo unspecified) | > 100 | > 100 | > 100 | > 100 | > 100 | > 100 | > 100 | > 100 | – | – | – | – | – | – | –
Cc1ccnc2c1c(=O)c1ccccc1n2C | > 100 | 51.4 | > 100 | 73.5 | > 100 | > 100 | > 100 | 81.9 | – | – | – | – | – | – | –
CC1CSc2nc3[nH]c(=S)[nH]c3c(=O)n2C1 (stereo unspecified) | > 100 | > 100 | > 100 | – | > 100 | > 100 | > 100 | > 100 | – | – | – | – | – | – | –
C#CCSc1cnc2ccccc2c1Sc1c[nH]c2ccccc2c1=O | 44.9 | > 100 | > 100 | > 100 | 89.9 | > 100 | > 100 | > 100 | – | – | – | – | – | – | –
C/C=C/OC1C(C2COC(C)(C)O2)OC2OC(C)(C)OC21 (stereo unspecified) | > 100 | > 100 | – | > 100 | – | > 100 | > 100 | – | – | – | – | – | – | – | –
CC(C)(N=NC(C)(C)C1=NCCN1)C1=NCCN1 | > 100 | > 100 | > 100 | > 100 | > 100 | > 100 | > 100 | > 100 | – | – | – | – | – | – | –
O=C(CN=C(CN(c1ccccc1)c1ccccc1)Oc1c([N+](=O)[O-])cc([N+](=O)[O-])cc1[N+](=O)[O-])N1CCNCC1 | > 100 | – | > 100 | > 100 | > 100 | > 100 | > 100 | > 100 | – | – | – | – | – | – | –
COc1ccc(C2c3cc4c(cc3OC(N3CCOCC3)C2C)OCO4)c(OC)c1 (stereo unspecified) | 41.1 | 62.1 | > 57.6 | 8.22 | 14.4 | 9.64 | 29.8 | 87.7 | – | – | – | – | – | – | –
COc1ccc(CN=C2Nc3ccncc3S(=O)(=O)N2c2ccccc2)cc1 | > 100 | > 100 | > 100 | > 100 | > 100 | 33.9 | 87.6 | 89.4 | – | – | – | – | – | – | –
CC1C=C(NCC2(CO)CCC2)NC(N)=N1 (stereo unspecified) | > 100 | > 100 | > 100 | > 100 | > 100 | – | > 100 | > 100 | – | – | – | – | – | – | –
O=C(/C=C/c1ccc(Cl)c(Cl)c1)CCN1CCN(CCC(=O)/C=C/c2ccc(Cl)c(Cl)c2)CC1 | 21 | 31.8 | 70.8 | – | 72.8 | 30.7 | 46.3 | 59.8 | – | – | – | – | – | – | –
CCOC(=O)c1ccc(Nc2nc3ccc(C(F)(F)F)cc3nc2-c2ccccc2)cc1 | > 100 | > 100 | – | > 100 | > 100 | > 100 | > 100 | – | – | – | – | – | – | – | –
O/N=C1\CC2(N3CCOCC3)CCC1(Cc1ccccc1)CC2 | 41.9 | > 100 | > 100 | – | 83.1 | 58.3 | > 100 | – | – | – | – | – | – | – | –
COc1cc2cnc3c(c2cc1OC)Cc1cc2c(cc1-3)OCO2 | > 51.9 | > 74.7 | > 100 | > 100 | > 95.8 | 31.8 | > 100 | 50.2 | 391 | < 10 | < 10 | < 10 | 41.1 | < 13.2 | 1860
O=C(O)c1cc2c(cc1S(=O)(=O)O)C1C(C3C2C2(Cl)C(Cl)=C(Cl)C3(Cl)C2(Cl)Cl)C2(Cl)C(Cl)=C(Cl)C1(Cl)C2(Cl)Cl (stereo unspecified) | > 100 | > 100 | > 100 | > 100 | 49 | 60.3 | > 100 | > 100 | – | – | – | – | – | – | –
CCOC(=O)/C=C/[C@H](O[Si](c1ccccc1)(c1ccccc1)c1ccccc1)C(C)(C)C | > 31.6 | > 31.6 | > 31.6 | > 31.6 | > 31.6 | > 31.6 | – | – | – | – | – | – | – | – | –
Cc1cc2nc3c(C(O)CO)nn(-c4ccccc4)c3nc2cc1C (stereo unspecified) | 42.8 | 33.2 | – | 70.9 | 98.2 | 50.2 | 42 | 42.8 | – | – | – | – | – | – | –
C=CC1(CBr)CCC(C(C)(C)Br)O1 (stereo unspecified) | 6.56 | 16.5 | 20.6 | 39.6 | 46.7 | 30.8 | 23.9 | 30.4 | – | – | – | – | – | – | –
O=C(c1ccco1)N1CCN(C(=O)c2ccco2)C1=S | 12.8 | 16.7 | 21.2 | > 100 | 51.5 | 11.2 | 22.8 | 33.9 | – | – | – | – | – | – | –
